A short description of this data set: logP determination by retention times (calibration with alkan-2-ones). Particulars: * HPLC reversed-phase C18, 40° C., mobile phase 0.1% aqueous formic acid and acetonitrile, linear gradient 10% to 95% acetonitrile.

Molecules are shown by their SMILES.

`Cc1cc(Nc2nccc(-c3sc(N(C)C)nc3C(F)(F)F)n2)ccc1F` [Example 692, 4-[2-(dimethylamine)-4-(trifluoromethyl)-1,3-thiazol-5-yl]-N-(4-fluoro-3-methylphenyl)pyrimidine-2-amine]: the logP was 4.43*. By chromatographic logP is commonly meant lipophilicity estimated from chromatographic retention. Higher therefore signals higher lipophilicity. In turn, `COC(=O)Nc1ccc(Nc2nccc(-c3sc(C)nc3C(F)(F)F)n2)cc1` [Example 693, methyl-[4-({4-[2-methyl-4-(trifluoromethyl)-1,3-thiazol-5-yl]pyrimidin-2-yl}amino)phenyl]carbamate] came in with a chromatographic logP of 2.7.

For the compound `COC(=O)Nc1ccc(Nc2nccc(-c3sc(N(C)C)nc3C(F)(F)F)n2)cc1` [Example 694, methyl-[4-({4-[2-(dimethylamine)-4-(trifluoromethyl)-1,3-thiazol-5-yl]pyrimidin-2-yl}amino)phenyl]carbamate], the logP was 3.04*. Take `CN(C)c1nc(C(F)(F)F)c(-c2ccnc(Nc3cccc(Cl)c3)n2)s1` [Example 695, N-(3-chlorophenyl)-4-[2-(dimethylamine)-4-(trifluoromethyl)-1,3-thiazol-5-yl]pyrimidine-2-amine]: the logP is on record as 4.51*. With `Cc1nc(C(F)(F)F)c(-c2ccnc(Nc3ccc(O)cc3)n2)s1` [Example 696, 4-({4-[2-methyl-4-(trifluoromethyl)-1,3-thiazol-5-yl]pyrimidin-2-yl}amino)phenol], the chromatographic logP was 2.39.

On to `CN(C)c1nc(C(F)(F)F)c(-c2ccnc(Nc3ccc(O)cc3)n2)s1` [Example 697, 4-({4-[2-(dimethylamine)-4-(trifluoromethyl)-1,3-thiazol-5-yl]pyrimidin-2-yl}amino)phenol], for which the logP is listed as 2.64*.

On to `CC(=O)Nc1ccc(Nc2nccc(-c3sc(C)nc3C(F)(F)F)n2)cc1` [Example 698, N-[4-({4-[2-methyl-4-(trifluoromethyl)-1,3-thiazol-5-yl]pyrimidin-2-yl}amino)phenyl]acetamide], for which the chromatographic logP was found to be 2.26. As for `CC(=O)Nc1ccc(Nc2nccc(-c3sc(N(C)C)nc3C(F)(F)F)n2)cc1` [Example 699, N-[4-({4-[2-(dimethylamine)-4-(trifluoromethyl)-1,3-thiazol-5-yl]pyrimidin-2-yl}amino)phenyl]acetamide], the logP is 2.58*. Consider `Cc1nc(C(F)(F)F)c(-c2ccnc(Nc3ccc(N(C)C)c(Cl)c3)n2)s1` [Example 700, 2-chloro-N1,N1-dimethyl-N4-{4-[2-methyl-4-(trifluoromethyl)-1,3-thiazol-5-yl]pyrimidin-2-yl}benzene-1,4-diamine], for which the chromatographic logP was determined as 2.88.

For `CN(C)c1nc(C(F)(F)F)c(-c2ccnc(Nc3ccc(N(C)C)c(Cl)c3)n2)s1` [Example 701, 2-chloro-N4-{4-[2-(dimethylamine)-4-(trifluoromethyl)-1,3-thiazol-5-yl]pyrimidin-2-yl}-N1,N1-dimethylbenzene-1,4-diamine], the logP is reported as 3.46*. Same read-out and setting: to `CN(C)c1nc(C(F)(F)F)c(-c2ccnc(Nc3cccc(O)c3)n2)s1` [Example 702, 3-({4-[2-(dimethylamine)-4-(trifluoromethyl)-1,3-thiazol-5-yl]pyrimidin-2-yl}amino)phenol] belongs 2.84*. Take `Cc1nc(C(F)(F)F)c(-c2ccnc(Nc3ccc4c(c3)OCO4)n2)s1` [Example 703, N-1,3-benzodioxol-5-yl-4-[2-methyl-4-(trifluoromethyl)-1,3-thiazol-5-yl]pyrimidine-2-amine]: the chromatographic logP is 3.21.

Consider `CN(C)c1nc(C(F)(F)F)c(-c2ccnc(Nc3ccc4c(c3)OCO4)n2)s1` [Example 704, N-1,3-benzodioxol-5-yl-4-[2-(dimethylamine)-4-(trifluoromethyl)-1,3-thiazol-5-yl]pyrimidine-2-amine], for which the logP was 3.63*.

On to `Cc1nc(C(F)(F)F)c(-c2ccnc(Nc3ccc(F)c(F)c3)n2)s1` [Example 705, N-(3,4-difluorophenyl)-4-[2-methyl-4-(trifluoromethyl)-1,3-thiazol-5-yl]pyrimidine-2-amine], for which the chromatographic logP came out at 3.76.

For the compound `COc1cc(Nc2nccc(-c3sc(C)nc3C(F)(F)F)n2)cc(OC)c1` [Example 706, N-(3,5-dimethoxyphenyl)-4-[2-methyl-4-(trifluoromethyl)-1,3-thiazol-5-yl]pyrimidine-2-amine], the chromatographic logP stood at 3.41. For `COc1cc(Nc2nccc(-c3sc(N(C)C)nc3C(F)(F)F)n2)cc(OC)c1` [Example 707, N-(3,5-dimethoxyphenyl)-4-[2-(dimethylamine)-4-(trifluoromethyl)-1,3-thiazol-5-yl]pyrimidine-2-amine], the logP is on record as 3.85*. With `COc1cc(Nc2nccc(-c3sc(C)nc3C(F)F)n2)cc(OC)c1OC` [Example 708, 4-[4-(difluoromethyl)-2-methyl-1,3-thiazol-5-yl]-N-(3,4,5-trimethoxyphenyl)pyrimidine-2-amine], the chromatographic logP was found to be 2.61. On the same count and under the same terms, to `CC(=O)c1cccc(Nc2nccc(-c3sc(C)nc3C(F)F)n2)c1` [Example 709, 1-[3-({4-[4-(difluoromethyl)-2-methyl-1,3-thiazol-5-yl]pyrimidin-2-yl}amino)phenyl]ethanone] belongs 2.64.

On to `Cc1nc(C(F)F)c(-c2ccnc(Nc3ccccc3)n2)s1` [Example 710, 4-[4-(difluoromethyl)-2-methyl-1,3-thiazol-5-yl]-N-phenylpyrimidine-2-amine], for which the chromatographic logP was 2.97. On the same count and under the same terms, to `CCc1nc(C)c(-c2ccnc(Nc3ccc(C(=O)NCCOC)cc3)n2)s1` [Example 711, 4-{[4-(2-ethyl-4-methyl-1,3-thiazol-5-yl)pyrimidin-2-yl]amino}-N-(2-methoxyethyl)benzamide] belongs 2.09; to `COC(=O)NCc1cccc(Nc2nccc(-c3sc(SC)nc3C)n2)c1` [Example 712, methyl-[3-({4-[4-methyl-2-(methylthio)-1,3-thiazol-5-yl]pyrimidin-2-yl}amino)benzyl]carbamate], 2.16. The compound `COc1cc(Nc2nccc(-c3sc(-c4cccnc4)nc3C)n2)cc(OC)c1OC` [Example 713, 4-(4-methyl-2-pyridin-3-yl-1,3-thiazol-5-yl)-N-(3,4,5-trimethoxyphenyl)pyrimidine-2-amine] had a chromatographic logP of 2.56. For the compound `CCc1nc(C)c(-c2ccnc(Nc3cccnc3)n2)s1` [Example 714, 4-(2-ethyl-4-methyl-1,3-thiazol-5-yl)-N-pyridin-3-ylpyrimidine-2-amine], the chromatographic logP came to 1.35. Same read-out and setting: to `Cc1nc(-c2cccnc2)sc1-c1ccnc(Nc2ccccc2)n1` [Example 715, 4-(4-methyl-2-pyridin-3-yl-1,3-thiazol-5-yl)-N-phenylpyrimidine-2-amine] belongs 3.04. On the same count and under the same terms, the same measure for `Cc1nc(C)c(-c2ccnc(Nc3cccnc3)n2)s1` [Example 716, 4-(2,4-dimethyl-1,3-thiazol-5-yl)-N-pyridin-3-ylpyrimidine-2-amine]: 0.98; for `CCc1nc(C)c(-c2ccnc(Nc3ccc(C(C)=O)cc3)n2)s1` [Example 717, 1-(4-{[4-(2-ethyl-4-methyl-1,3-thiazol-5-yl)pyrimidin-2-yl]amino}phenyl)ethanone]: 2.6; for `CCc1nc(C)c(-c2ccnc(Nc3ccc(C)c(C)c3)n2)s1` [Example 718, N-(3,4-dimethylphenyl)-4-(2-ethyl-4-methyl-1,3-thiazol-5-yl)pyrimidine-2-amine]: 3.71.

Regarding `COc1cc(Nc2nccc(-c3sc(NCC4CCCO4)nc3C)n2)cc(OC)c1` (stereo not drawn) [Example 719, N-(3,5-dimethoxyphenyl)-4-{4-methyl-2-[(tetrahydrofuran-2-ylmethyl)amino]-1,3-thiazol-5-yl}pyrimidine-2-amine], the chromatographic logP came to 2.02. Same read-out and setting: to `Cc1nc(NCC2CCCO2)sc1-c1ccnc(Nc2ccc(N3CCCC3=O)cc2)n1` (stereo not drawn) [Example 720, 1-{4-[(4-{4-methyl-2-[(tetrahydrofuran-2-ylmethyl)amino]-1,3-thiazol-5-yl}pyrimidin-2-yl)amino]phenyl}pyrrolidin-2-one] belongs 1.6; to `CCc1nc(C)c(-c2ccnc(Nc3ccc(OCC(C)(C)C)nc3)n2)s1` [Example 721, N-[6-(2,2-dimethylpropoxy)pyridin-3-yl]-4-(2-ethyl-4-methyl-1,3-thiazol-5-yl)pyrimidine-2-amine], 4.23. The same measure, in the same setting: to `COCCCNc1nc(C)c(-c2ccnc(Nc3ccccc3)n2)s1` [Example 725, 4-{2-[(3-methoxypropyl)amino]-4-methyl-1,3-thiazol-5-yl}-N-phenylpyrimidine-2-amine] belongs 1.81. Still for that read-out and setting: the same measure for `COCCCNc1nc(C)c(-c2ccnc(Nc3cccc(Cl)c3)n2)s1` [Example 726, N-(3-chlorophenyl)-4-{2-[(3-methoxypropyl)amino]-4-methyl-1,3-thiazol-5-yl}pyrimidine-2-amine]: 2.28. For the compound `COCC(C)Nc1nc(C)c(-c2ccnc(Nc3ccc(N4CCCC4=O)cc3)n2)s1` (stereo not drawn) [Example 728, 1-{4-[(4-{2-[(2-methoxy-1-methylethyl)amino]-4-methyl-1,3-thiazol-5-yl}pyrimidin-2-yl)amino]phenyl}pyrrolidin-2-one], the chromatographic logP stood at 1.64. The same measure, in the same setting: to `COCC(C)Nc1nc(C)c(-c2ccnc(Nc3ccc(C(C)=O)cc3)n2)s1` (stereo not drawn) [Example 729, 1-{4-[(4-{2-[(2-methoxy-1-methylethyl)amino]-4-methyl-1,3-thiazol-5-yl}pyrimidin-2-yl)amino]phenyl}ethanone] belongs 1.92. Same read-out and setting: to `Cc1nc(N2CCOCC2)sc1-c1ccnc(Nc2ccccc2)n1` [Example 731, 4-(4-methyl-2-morpholin-4-yl-1,3-thiazol-5-yl)-N-phenylpyrimidine-2-amine] belongs 2.25; to `CCc1nc(C)c(-c2ccnc(N(C(=O)OC)c3ccccc3)n2)s1` [Example 732, methyl-[4-(2-ethyl-4-methyl-1,3-thiazol-5-yl)pyrimidin-2-yl]phenylcarbamate], 2.59.

Source of the values: US20090030024A1, “THIAZOLES AS FUNGICIDES” (priority 2005, published 2009).
